# Data as given in patent US12116371B2, “Substituted pyridines as irreversible inhibitors of menin-MLL interaction” (BIOMEA FUSION, INC., priority 2018, dated 2024).
# Like-named read-outs stand apart in the source and are kept apart here.
# Columns and labels:
# Conditions in all cases: for IC50: Homo sapiens
# [1] = tested on: MOLM-13 cells; test: Long term proliferation assay, InCell read-out; type: cell-based, human
# Procedure: (§1) Compounds of invention are tested in the 5 suspension lines by 14-day long-term proliferation assay.
# (§2) The compound is tested in 10-pt dose titration (client will determine the starting concentration and the dilution scheme) and the final DMSO concentration is kept at 0.2%.
# (§3) On Day 0, in a flat bottom 96-well plate, add 100 μL of cells per well at the densities optimized. Prepare compounds in DMSO at 500× final concentration. Dilute the compounds with DMSO at the dilution. Dilute the compounds in media at 3× final concentration. Add 50 μL of compound or DMSO at 3× final concentration to each well. Final volume in each well is 150 μL, and final concentration of DMSO is 0.2%. Also include 3 untreated control wells, by adding 50 μL of media alone. Incubate plates for 96 hours.
# (§4) To do this take the total viable cell count calculated using step: • 1. Take the average of the replicates for each dose in order to be used in splitting the cells. • 2. Use a 96 well V-bottom plate to spin down the cells to remove old media and compound to split the cells. • 3. Based on the split ratio place the proper amount of media and cells into the V-bottom plate, and spin the plate at 1100 rpm for 5 minutes. • 4. Following the spin remove the media, careful not to disturb the cell pellet. Re-suspend pellet in 100 μL fresh media, and add to a new 96-well flat bottom plate. • 5. Add fresh compound, in the same manner as Step 3). • 6. Incubate plates for 72 hours. Repeat steps 5)-10) on Day 7. • 7. Incubate plates for 96 hours. Repeat Step 5)-10) on Day 11. • 8. Incubate 72 hours and repeat step 5) to take a final count. • 9. Data Analysis
# (§5) To calculate growth for days 4, 7, 11, and 14: • 1. Calculate the split factor for day 4 to 7, day 7 to 11, and day 11-14. The split factor is the viable cells/mL on Day X (either 4, 7 or 11) divided by the density the cells are being split back to. • 2. For growth of cells from day 4 to 7, multiply the day 7 viable cells/mL density by the split factor from day 4. • 3. For growth of cells from day 7 to 11, multiply the day 11 viable cells/mL density by the days 4, and 7 split factors. • 4. For growth of cells from Day 11 to 14, multiply the Day 14 viable cells/mL density by the days 4, 7, and 11 split factors. • 5. Plot growth on semi-log chart (viable cells/mL on Y axis, in log, and days on X axis). • 6. The growth inhibition was calculated with the formula ((untreated cell numbers-treated cell numbers)/untreated cell)). • 7. Calculate the IC50 for each compound in each line using XLFit (Sigmoidal Dose-Response Model, y=(Bottom+((Top-Bottom)/(1+((IC50/×)^Hill))))).
# [2] = tested on: MV4-11 cells; test: Long term proliferation assay, InCell read-out; type: cell-based, human
# Procedure: as §1, §2, §3, §4, §5
# [3] = tested on: KG-1 cells; test: Long term proliferation assay, InCell read-out; type: cell-based
# Procedure: as §1, §2, §3, §4, §5
# [4] = tested on: OCI-AML-3 cells; test: Long term proliferation assay, InCell read-out; type: cell-based
# Procedure: as §1, §2, §3, §4, §5
# [5] = tested on: MIAPaCa-2 cells; test: Proliferation assay, cells in adhesion; type: cell-based
# [6] = tested on: SK-LU-1/AMG510 cells; test: Proliferation assay, cells in adhesion; type: cell-based
# [7] = tested on: MOLM-13 cells; test: Long term proliferation assay, Cell Titer-Glo read-out; type: cell-based, human
# Procedure: as §1, §2, §3, §4, §5
# [8] = tested on: MV4-11 cells; test: as above; type: cell-based, human
# Procedure: as §1, §2, §3, §4, §5
smiles,measurement,setting,value
C=CC(=O)NC1CCCN(Cc2ccnc(C(=O)Nc3ccc(-c4cc5c(N6CCOCC6)ncnc5[nH]4)cc3)c2)C1 (stereo not drawn) [Compound 10],IC50,"[1]; MOLM-13, 96 h, MOLM-13, Day 4, read-out: Day 4 IC50",0.08 µM
same,IC50,"[1]; MOLM-13, 264 h, MOLM-13, Day 11, read-out: Day 11 IC50",0.09 µM
same,IC50,"[1]; MOLM-13, MOLM-13, T4, read-out: IC50",0.08 µM
same,IC50,"[1]; MOLM-13, MOLM-13, T4, read-out: pIC50 (converted)",0.0776 µM
same,IC50,"[1]; MOLM-13, MOLM-13, T11, read-out: IC50",0.09 µM
same,IC50,"[1]; MOLM-13, MOLM-13, T11, read-out: pIC50 (converted)",0.0912 µM
same,% max,"[1]; MOLM-13, T4",98%
same,% max,"[1]; MOLM-13, T11",98%
same,IC50,"[2]; MV4-11, 96 h, MV4-11, Day 4, read-out: Day 4 IC50",0.17 µM
same,IC50,"[2]; MV4-11, 264 h, MV4-11, Day 11, read-out: Day 11 IC50",0.17 µM
same,IC50,"[2]; MV4-11, MV4-11, T4, read-out: IC50",0.17 µM
same,IC50,"[2]; MV4-11, MV4-11, T4, read-out: pIC50 (converted)",0.174 µM
same,IC50,"[2]; MV4-11, MV4-11, T11, read-out: IC50",0.17 µM
same,IC50,"[2]; MV4-11, MV4-11, T11, read-out: pIC50 (converted)",0.174 µM
same,% max,"[2]; MV4-11, T4",90%
same,% max,"[2]; MV4-11, T11",90%
same,IC50,"[3]; KG-1, 96 h, KG-1, Day 4, read-out: Day 4 IC50",0.52 µM
same,IC50,"[3]; KG-1, 264 h, KG-1, Day 11, read-out: Day 11 IC50",0.3 µM
same,IC50,"[3]; KG-1, KG-1, T4, read-out: IC50",0.52 µM
same,IC50,"[3]; KG-1, KG-1, T4, read-out: pIC50 (converted)",0.525 µM
same,IC50,"[3]; KG-1, KG-1, T11, read-out: IC50",0.3 µM
same,IC50,"[3]; KG-1, KG-1, T11, read-out: pIC50 (converted)",0.302 µM
same,% max,"[3]; KG-1, T4",100%
same,% max,"[3]; KG-1, T11",100%
same,IC50,"[4]; OCI-AML-3, 96 h, OCI-AML-3, Day 4, read-out: Day 4 IC50",0.11 µM
same,IC50,"[4]; OCI-AML-3, 264 h, OCI-AML-3, Day 11, read-out: Day 11 IC50",0.12 µM
same,IC50,"[4]; OCI-AML-3, OCI-AML3, T4, read-out: IC50",0.11 µM
same,IC50,"[4]; OCI-AML-3, OCI-AML3, T4, read-out: pIC50 (converted)",0.11 µM
same,IC50,"[4]; OCI-AML-3, OCI-AML3, T11, read-out: IC50",0.12 µM
same,IC50,"[4]; OCI-AML-3, OCI-AML3, T11, read-out: pIC50 (converted)",0.123 µM
same,% max,"[4]; OCI-AML3, T4",100%
same,% max,"[4]; OCI-AML3, T11",100%
same,IC50,"[5]; MIA PaCa-2, MIAPaCa-2, T4, read-out: IC50",0.27 µM
same,IC50,"[5]; MIA PaCa-2, MIAPaCa-2, T4, read-out: pIC50 (converted)",0.269 µM
same,IC50,"[5]; MIA PaCa-2, MIAPaCa-2, T7, read-out: IC50",0.23 µM
same,IC50,"[5]; MIA PaCa-2, MIAPaCa-2, T7, read-out: pIC50 (converted)",0.229 µM
same,IC50,"[5]; MIA PaCa-2, MIAPaCa-2, T11, read-out: IC50",0.22 µM
same,IC50,"[5]; MIA PaCa-2, MIAPaCa-2, T11, read-out: pIC50 (converted)",0.219 µM
same,% max,"[5]; MIAPaCa-2, T4",96%
same,% max,"[5]; MIAPaCa-2, T7",98%
same,% max,"[5]; MIAPaCa-2, T11",99%
same,IC50,"[6]; SK-LU-1, SK-LU-1/AMG510, T4, read-out: IC50",0.72 µM
same,IC50,"[6]; SK-LU-1, SK-LU-1/AMG510, T7, read-out: IC50",0.45 µM
same,IC50,"[6]; SK-LU-1, SK-LU-1/AMG510, T7, read-out: pIC50 (converted)",0.447 µM
same,IC50,"[6]; SK-LU-1/AMG510, T11, read-out: IC50",0.39 µM
same,IC50,"[6]; SK-LU-1/AMG510, T11, read-out: pIC50 (converted)",0.389 µM
same,% max,"[6]; SK-LU-1/AMG510, T4",83%
same,% max,"[6]; SK-LU-1/AMG510, T7",95%
same,% max,"[6]; SK-LU-1/AMG510, T11",98%
same,IC50,"[7]; MOLM-13, 96 h, MOLM-13, Day 4, Cell Titer-Glo, read-out: Day 4 IC50",0.1 µM
same,IC50,"[7]; MOLM-13, 168 h, MOLM-13, Day 7, Cell Titer-Glo, read-out: Day 7 IC50",0.05 µM
same,IC50,"[7]; MOLM-13, 264 h, MOLM-13, Day 11, Cell Titer-Glo, read-out: Day 11 IC50",0.05 µM
same,IC50,"[7]; MOLM-13, 336 h, MOLM-13, Day 14, Cell Titer-Glo, read-out: Day 14 IC50",0.08 µM
same,IC50,"[7]; MOLM-13, MOLM-13, T4, CellTiter-Glo, read-out: IC50",0.1 µM
same,IC50,"[7]; MOLM-13, MOLM-13, T4, CellTiter-Glo, read-out: pIC50 (converted)",0.0977 µM
same,IC50,"[7]; MOLM-13, MOLM-13, T11, CellTiter-Glo, read-out: IC50",0.05 µM
same,IC50,"[7]; MOLM-13, MOLM-13, T11, CellTiter-Glo, read-out: pIC50 (converted)",0.0479 µM
same,% max,"[7]; MOLM-13, T4, CellTiter-Glo",98%
same,% max,"[7]; MOLM-13, T11, CellTiter-Glo",99%
same,IC50,"[8]; MV4-11, 96 h, MV4-11, Day 4, Cell Titer-Glo, read-out: Day 4 IC50",0.15 µM
same,IC50,"[8]; MV4-11, 168 h, MV4-11, Day 7, Cell Titer-Glo, read-out: Day 7 IC50",0.07 µM
same,IC50,"[8]; MV4-11, 264 h, MV4-11, Day 11, Cell Titer-Glo, read-out: Day 11 IC50",0.06 µM
same,IC50,"[8]; MV4-11, 336 h, MV4-11, Day 14, Cell Titer-Glo, read-out: Day 14 IC50",0.05 µM
same,IC50,"[8]; MV4-11, MV4-11, T4, CellTiter-Glo, read-out: IC50",0.15 µM
same,IC50,"[8]; MV4-11, MV4-11, T4, CellTiter-Glo, read-out: pIC50 (converted)",0.151 µM
same,IC50,"[8]; MV4-11, MV4-11, T11, CellTiter-Glo, read-out: IC50",0.06 µM
same,IC50,"[8]; MV4-11, MV4-11, T11, CellTiter-Glo, read-out: pIC50 (converted)",0.0562 µM
same,% max,"[8]; MV4-11, T4, CellTiter-Glo",99%
same,% max,"[8]; MV4-11, T11, CellTiter-Glo",99%
